Data set [1] in a line: In vivo clearance of ligand. Particulars: male, C57BL/6, mouse, serum, 0.5 mg; mice, intravenous; read-out: half-life (t1/2) of ligand in mouse circulation. The procedure:
(i) Ligand (0.5 mg/animal) dissolved in PBS or saline (200 μl) was injected intravenously into the tail vein of six male; 23-27 week old wild-type C57BL/6 mice. Up to two blood samples plus a terminal sample per mouse were collected at each time point up to 180 minutes.
(ii) Serum was prepared and ˜200 ng of internal standard (either ^2H4-BPC6 or BPC9) added. Serum proteins were precipitated with 4 volumes of either ice cold methanol or acetonitrile. The supernatant was dried under vacuum and re-dissolved in 0.1% v/v aqueous formic acid. (iii) Samples were chromatographed on a Phenomenex Aqua column using a gradient of 0.1% v/v formic acid-60% v/v acetonitrile in formic acid, and the eluate passed into the positive ion source of a Quattro II triple quadrupole mass spectrometer. The MRM transitions used were m/z 449.3→390.2 and 453.→394.2 (BPC6) and m/z 477.3→418.3, […] (BPC8).
(iv) Ligand concentrations were measured against an extracted standard curve and were plotted using Sigmaplot (v14) and fitted to a 2-parameter exponential decay.

Data set [2] concerns the target T1, CRP (Homo sapiens, UniProt P02741).
T1 sequence (P02741 19-224): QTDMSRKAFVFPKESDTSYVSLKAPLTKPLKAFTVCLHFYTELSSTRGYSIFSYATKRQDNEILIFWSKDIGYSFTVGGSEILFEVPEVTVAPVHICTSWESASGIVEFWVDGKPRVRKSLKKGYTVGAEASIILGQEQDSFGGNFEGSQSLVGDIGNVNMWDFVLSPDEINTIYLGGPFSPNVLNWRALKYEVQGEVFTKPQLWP
Nature of the data set: Roche immunoturbidimetric assay: pure CRP. The arrangement: The final concentrations were 0.73 μM native pentameric CRP; from tissue. The class given is binding. The procedure: (i) Human CRP at ˜90 μg/ml (3.9 μM monomer or 0.78 μM pentamer) in TC buffer was prepared from a stock solution; a 75 μl aliquot was used in the assay.
(ii) Compounds were prepared from stock solutions at up to 10 mM in TC (labelled S1). They were serially diluted with TC buffer (100 μl ligand+200 μl TC) to provide up to 9 dilutions, S2-S10. A TC buffer control (S0) was included in each assay.
(iii) A 15 μl volume of each ligand solution was incubated with 75 μl of CRP for 1 h at 37° C. The final concentrations were CRP pentamer=0.73 μM, ligands S1-S10=625-0.03 μM, corresponding to ligand:CRP pentamer ratios of 853-0.04.
(iv) CRP concentrations were measured by the Roche microparticle-enhanced immunoturbidimetric assay (10) on the COBAS MIRA autoanalyser, and results expressed as a percentage of the CRP control.
(v) Data were plotted using Sigmaplot (V14) using the 4 parameter logistic curve y=min+(max−min)/(1+(x/EC50)^−Hill slope) to calculate EC50.
(vii) All compounds were assayed in comparison with a highly purified preparation of BPC8, that was prepared by Carbogen AMCIS AG, dissolved in sterile water and diluted into TC buffer as required.
The immunoturbidimetric CRP assay on the Roche COBAS MIRA Plus autoanalyser, utilises two different sized microparticles that are covalently coupled with two different monoclonal antibodies, which recognise different CRP epitopes. The assay was developed by Roche for clinical measurement of CRP serum and plasma with high sensitivity and a very wide dynamic range. Serendipitously, one of the two antibodies binds to an epitope present on the ligand binding B-face of CRP. Thus, when the binding pocket is occupied by ligand and, especially, when the B-face is occluded by the B-face to B-face interaction of two native CRP pentamers produced by cross linking via our unique bivalent ligands, the assay fails to detect the CRP. In contrast, the CRP is all detected and assayed normally by other assays that disrupt the crosslinking and/or use antibodies which recognise different, non-occluded, epitopes. Inhibition of CRP recognition in the Roche assay is thus a convenient tool to monitor the efficacy and potency of complex formation between our unique ligands and CRP.

The target in data set [3] is T1, CRP. The arrangement: The final concentrations were 0.73 μM native pentameric CRP; from tissue. Conditions: rats undergoing coronary artery ligation and receiving human CRP; cited from earlier work.
The target of data set [4] is T1, CRP. The data set can be described thus: Immobilised phosphocholine plate assay (125I-CRP binding). Also noted: The final concentrations were 0.73 μM native pentameric CRP; from tissue. Conditions: read-out: IC50 for inhibition of 125I-CRP binding to immobilised phosphocholine. The procedure: (i) Phosphocholine was immobilised on Greiner NHS-activated microtitre plates by incubation with 4-aminophenyl-1-phosphocholine. Remaining active sites were blocked by incubation with 4% w/v BSA in TC buffer (TCB).
(ii) Human CRP at 1 μg/ml in TC buffer was spiked with ^125I-labelled CRP to provide 10^6 cpm/ml.
(iii) Compounds were prepared from up to 10 mM stock solutions by dilution in TC buffer to 0.5 mM (labelled S1). Serial dilutions were prepared by diluting 100 μl ligand solution with 200 μl TC buffer (S2-S10). A ligand-free control was also used (SO, TC only).
(iv) A 100 μl volume of CRP solution was incubated with 10 μl of each compound (S1-S10, SO) for 1 h at room temperature without stirring, to provide final ligand concentrations across the range 45.5 μM-6.9 nM with a ligand:CRP monomer molar ratio of 1151-0.06. In some cases, single fixed ligand concentrations were also assayed in comparison with PC.
(v) A 100 μl volume of each CRP-ligand mixture was added to the plate wells and incubated for 2 h at room temperature. Solutions were then discarded and the plates washed with TCB buffer. Bound radioactivity was measured (1 min counts) using a gamma counter (Perkin Elmer Wizard 2470).
(vi) Data were plotted with Sigmaplot v14 software using the 4-parameter logistic curve y=min+(max−min)/(1+(x/EC50)^−Hill slope) to calculate IC50.

Data set [5] addresses T1, CRP. Nature of the data set: Size exclusion chromatography of CRP/ligand cross linking. The class given is binding. Also noted: The final concentrations were 0.73 μM native pentameric CRP; from tissue. The procedure:
(i) Ligands were diluted to 0.5 mM in TC buffer from up to 10 mM stocks. Serial dilutions were prepared as required. […]
(iii) The complex was chromatographed on a Superdex200 column (10/300 GL; 24 ml bed volume), connected to the ÅKTA100 Explorer HPLC system, and equilibrated and eluted in TC buffer at 0.5 ml/min. Eluates were monitored at 280 nm and fractions (0.5 ml) collected as required.
Size exclusion chromatography on a Superdex 200 column equilibrated and eluted with TC buffer pH 8.0, and calibrated with standard globular marker proteins and with human CRP, the native CRP pentamer (Mr 115 kDa) eluted at 13.9 ml (range 13.7-14.0 ml, n=10).
A general note: Size exclusion chromatography separates by hydrodynamic size, large species first.

In data set [6] the target is T1, CRP. Nature of the data set: In vivo clearance of CRP/ligand complexes generated in vivo in mice. The arrangement: The final concentrations were 0.73 μM native pentameric CRP; from tissue. The procedure: (i) Two groups of 8 wild-type C57BL/6 mice (male; 23-27 weeks old) were used: group 1 (control) and group 2 (treated).
(ii) Both groups of animals were given 200 μl of human CRP (5 mg/ml in azide-free TC buffer) subcutaneously on day 1.
(iii) On day 2 (+18 h), control animals were given a 200 μl intravenous bolus of TC buffer. Treated animals were given a 200 μl iv bolus of ligand (prepared at 5 mg/ml in TC buffer).
(iv) One timed blood sample and a terminal blood sample were collected from each mouse into heparinised tubes and weighed. This generated data in quadruplicate at 4 time points, normally 30, 60, 120 and 360 minutes.
(v) ^125I radiolabel was measured (Perkin Elmer Wizard; protocol #1) in whole blood to quantify total CRP. In some cases, electroimmunoassay as above was also used to determine total CRP concentration.
(vi) Plasma was prepared and free CRP determined by Roche immunoassay.
Subcutaneous injection of human CRP provided circulating CRP concentrations with which to test for effects of our ligands in vivo. (Table 4).

Data set [7] addresses T1, CRP. Nature of the data set: Rat acute myocardial infarction model (coronary artery ligation) with human CRP. The format is in vivo. Also noted: The final concentrations were 0.73 μM native pentameric CRP; from tissue. Conditions: rats; ischaemia reperfusion and terminal coronary artery ligation; unpublished observations. An excerpt: Human CRP and activated rat complement were deposited in and around the infarct and the exacerbation of tissue damage was absolutely complement dependent. Similar observations were made in the middle cerebral artery occlusion model of stroke in rats (3).
The design of the first small molecule inhibitor of CRP binding for use in vivo, bis(phosphocholine)hexane (BPC6), enabled conclusive confirmation of the pathogenic role of human CRP in exacerbating tissue damage after ischaemic infarction (4).

Bounds are passed on as bounds.

One may read the IC50 as the point on the concentration scale where inhibition reaches its midpoint. For the molecule `C[N+](C)(C)CCOP(=O)([O-])OCCCCCCOP(=O)([O-])OCC[N+](C)(C)C` [BPC6, bis(phosphocholine)hexane], the half-life in data set [1] turned out to be 16.1 min. In addition, on CRP [2] (pure CRP in TC buffer, read-out: IC50 (μM), SD, inhibition of Roche CRP immunoreactivity), the IC50 stood at 4.7 µM. For the same molecule, the “Effect on increased tissue damage caused by human CRP” value on CRP [3] is on record as “completely abrogated the increased damage”.
As to `C[N+](C)(C)CCOP(=O)(O)OCCCCCCCCOP(=O)(O)OCC[N+](C)(C)C` [BPC8, 1,8-bis(phosphocholine)-octane, reference compound], the half-life in data set [1] was 15.4 min. On CRP [4], the IC50 came to 2.2 µM. Besides, on CRP [2], the “excess of ligand over CRP pentamer causing 50% reduction of immunoreactivity” value is listed as 2.5 fold. Further, on CRP [5] (CRP/ligand complex re-chromatographed in absence of free ligand), the Stable to rechromatography result was “No”. The “CRP elution volume from Superdex 200 after pre-incubation with ligand” value on CRP [5] (native CRP pentamer elutes at 13.9 ml) amounted to 12.6 mL. In addition, the “Time by which Roche value was the same as in control mice” value at CRP [6] (i.v. bolus 1 mg 18 h after s.c. CRP) was ≤ 3 h. In addition, the “Effect on detection of circulating CRP in the Roche assay” value on CRP [6] (i.v. bolus 18 h after s.c. CRP (1 mg)) is “immediately blocked detection of circulating CRP”. The “Protective effect against human CRP pathogenicity” value on CRP [7] is on record as “same protective effect”.

Values taken from patent publication US20230118142A1, “AGENTS FOR USE IN THE TREATMENT OF TISSUE DAMAGE” (UCL BUSINESS LTD, priority 2020, published 2023).
